ChEMBL document CHEMBL1156260, “Through the "gatekeeper door": exploiting the active kinase conformation” (J Med Chem, 2010)

Molecular target: Serine/threonine-protein kinase PLK1 (Homo sapiens, UniProt P53350)
Sequence (P53350 whole entry): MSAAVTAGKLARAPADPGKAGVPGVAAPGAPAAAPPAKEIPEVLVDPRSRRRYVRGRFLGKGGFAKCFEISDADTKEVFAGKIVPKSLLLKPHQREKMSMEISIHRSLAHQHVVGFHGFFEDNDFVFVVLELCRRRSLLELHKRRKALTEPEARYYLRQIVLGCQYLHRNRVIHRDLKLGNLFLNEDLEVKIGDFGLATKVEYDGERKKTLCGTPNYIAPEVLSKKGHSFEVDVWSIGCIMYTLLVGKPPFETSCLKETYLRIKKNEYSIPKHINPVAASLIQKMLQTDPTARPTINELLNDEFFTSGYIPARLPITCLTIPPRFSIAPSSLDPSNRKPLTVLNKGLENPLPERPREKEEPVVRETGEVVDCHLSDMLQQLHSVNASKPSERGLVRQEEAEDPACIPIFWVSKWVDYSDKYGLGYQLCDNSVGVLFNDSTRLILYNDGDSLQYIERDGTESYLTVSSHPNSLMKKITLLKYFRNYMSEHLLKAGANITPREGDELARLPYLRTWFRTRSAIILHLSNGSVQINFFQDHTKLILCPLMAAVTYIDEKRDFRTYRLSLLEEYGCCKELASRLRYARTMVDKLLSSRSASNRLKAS

Structure (SMILES): Cc1cc(NC(=O)Nc2ncc(CCNc3cc(Nc4nnc[nH]4)ncn3)s2)c(C(F)(F)F)o1
- IC50: 720 nM
